Values joined by “and” are separate entries in the source; they are usually repeats but may differ in a detail not shown here. Identical values can stand only once. Counter-ions that a name gives are not always drawn. Like-named read-outs stand apart in the source and are kept apart here.
Columns and labels:
HEK293T cells = experiment: Cell viability (alamarBlue) on HEK293T cells; conditions: replicate data
SARS-CoV-2 Mpro [1] = molecular target: T1, SARS-CoV-2 Mpro (Severe acute respiratory syndrome coronavirus 2, UniProt P0DTC1); experiment: In-cell protease (ICP) assay, Mpro construct in HEK293T cells; format: cell-based; conditions: HEK-293T; for remaining activity at 1 µM: read-out: mEmerald-NLS nuclear/total fluorescence (protease activity) normalized to untreated cells, 1 μM, HEK293T, Fig 2A replicate data, untreated control = 100; for remaining activity at 10 µM: read-out: mEmerald-NLS nuclear/total fluorescence (protease activity) normalized to untreated cells, 10 μM, HEK293T, Fig 2A replicate data, untreated control = 100
SARS-CoV-2 [2] = format: cell-based; conditions: Huh-7.5, MOI 0.1, 24 h.p.i., anti-N IFA
SARS-CoV-2 [3] = experiment: microbe, parasite or virus in culture; format: cell-based; conditions: Severe acute respiratory syndrome coronavirus 2, Huh7.5, Huh-7.5 cells
[4] = Cytotoxicity assay (alamarBlue) on Huh-7.5 cells; conditions: human, CC50, Huh-7.5 cells, alamarBlue reduction
SARS-CoV-2 Mpro [5] = molecular target: T1, SARS-CoV-2 Mpro; experiment: biochemical; conditions: FRET assay
Description: A cleavage site is indicated by an asterisk. […] N = 3, values are represented as mean ± SE.
For the determination of half-maximal inhibitory concentrations (IC50) of MG-101 and GC376 (BPS Bioscience), a synthetic substrate of Mpro containing FRET pair and Mpro nsp4/5 cleavage site (indicated by an arrow, Dabcyl-KTSAVLQ ↓ SGFRKME-Edans) (BPS Bioscience) was used for the FRET-based cleavage assay. The assay was performed in 96-well, black, flat-bottomed microtiter plates (Greiner Bio-One, Germany) with a final volume of 50 μl. Mpro (a final concentration of 200 nM) was pre-incubated for 1 h at 22 °C with compounds at different concentrations in the assay buffer (20 mM HEPES (pH 7), 0.5 mM EDTA, 1 mM dithiothreitol, 5% glycerol). The substrate was then added at a final concentration of 10 μM to the reaction mixture and the reaction was incubated for 4 h at 22 °C. The readings for the different concentrations of the inhibitor compounds incubated with the substrate without Mpro were measured as a blank. The fluorescence signals (excitation/emission, 360 nm/460 nm) of released EDANS were measured using Infinite 200 PRO multimode plate reader (Tecan, USA). The results were plotted as dose inhibition curves using nonlinear regression with a variable slope to determine the IC50 values of inhibitor compounds using GraphPad Prism 9.0.

SARS-CoV-2 [6] = conditions: Vero E6 cells; cited from earlier work
in vitro = conditions: human, CC50
SARS-CoV-2 [7] = experiment: qRT-PCR of viral RNA molecules in infected Huh-7.5 cells; format: cell-based; conditions: Huh-7.5, 24 h.p.i.
Description: We tested the effect of selected compounds in inhibiting the spread of SARS-CoV-2 on cell monolayers was tested by immunofluorescence assay (IFA) (Fig. 5a). From the percentage of inhibition (Fig. 5b), we calculated that the PLpro inhibitors Sitagliptin and Daclastavir inhibited virus spread by 75% and 70%, respectively, compared to untreated controls (Fig. 5b). […] We next determined whether the reduction in virus spread in the inhibitor-treated cells correlates with virus replication. We extracted total RNA from infected cells treated with inhibitors and quantified the number of viral RNA molecules by quantitative real-time polymerase chain reaction (qRT-PCR) (Fig. 5c). […] However, the reduction in the number of viral RNA molecules was lower for BMS-707035 (1-log reduction), Atazanavir (0.5-log), and Lomibuvir (0.5-log).
Fig. 5 Effect of compounds selected from ICP assay on SARS-CoV-2 replication. a Huh-7.5 cells positive for SARS-CoV-2 determined by immunofluorescence assay. Huh-7.5 cells pre-treated for 24 h with inhibitors were infected with SARS-CoV-2 at an MOI of 0.1. At 24 h.p.i., cells were fixed with paraformaldehyde and probed with anti-N (SARS CoV-2 nucleocapsid) primary antibody and FITC-conjugated goat anti-rabbit secondary antibody (green, infected cells). Nuclei were stained with Hoechst stain and confocal images were acquired. b The ratio of infected to uninfected cells for each treatment was calculated using Nikon Elements software and normalized to untreated controls (n = 5). c Quantification of SARS-CoV-2 RNA molecules from infected cells treated with inhibitors as indicated (n = 3).
Huh-7.5 cells grown in DMEM in 6 well tissue culture plates were pre-treated with different concentrations of compounds for 24 h were infected with 0.1 MOI of SARS-CoV-2. After 1 h of infection, virus-containing media were replaced with fresh media-containing compounds, and the plates were incubated at 37 °C. Untreated cells were included in the experiment as controls. After 24 h, total RNA was extracted from the cells using a Zymopure Quick-RNA extraction kit. The number of viral RNA molecules in the extracted total RNA samples was determined by quantitative RT-PCR on a QuantStudio-3 machine (Applied BioSystems) using primers –Forward […] and Reverse […]. The Ct values obtained were used to calculate the number of RNA molecules using a standard curve of Ct versus RNA molecules.

SARS-CoV-2 PLpro = SARS-CoV-2 PLpro (Severe acute respiratory syndrome coronavirus 2, UniProt P0DTC1); experiment: In vitro PLpro protease inhibition assay (Z-RLRGG-AMC); format: biochemical
[8] = MOI 0.1, 24 h.p.i., plaque assay

Q: What does the source list for `C=C[C@@H]1C[C@]1(NC(=O)[C@@H]1C[C@@H](Oc2ncc(OC)c3ccc(Cl)cc23)CN1C(=O)[C@@H](NC(=O)OC(C)(C)C)C(C)(C)C)C(=O)NS(=O)(=O)C1CC1` [Asunaprevir]?
A: % normalised alamar Blue reduction at 10μM (HEK293T cells): 78% and 88% and 90%; remaining activity at 1 µM (SARS-CoV-2 Mpro [1]): 88%; remaining activity at 10 µM (SARS-CoV-2 Mpro [1]): 69%

Q: Which “inhibition of virus spread compared to untreated controls” value (SARS-CoV-2 [2]) does the source give for `COC(=O)N[C@H](C(=O)N[C@@H](Cc1ccccc1)[C@@H](O)CN(Cc1ccc(-c2ccccn2)cc1)NC(=O)[C@@H](NC(=O)OC)C(C)(C)C)C(C)(C)C` [Atazanavir] here?
A: Its value is “below 50%”.

Q: And the EC50 (SARS-CoV-2 [3]; [8])?
A: The EC50 was 0.06 µM.

Q: And the CC50 at 24 h [4]?
A: Its CC50 at 24 h is 77.2 µM.

Q: What about the “inhibition of Mpro protease activity” value (SARS-CoV-2 Mpro [5]) of the same compound?
A: Its value is “not found to be effectively inhibiting the Mpro protease activity”.

Q: What about the “% normalised alamar Blue reduction at 10μM” value (HEK293T cells; listed as Atazanavir sulfate) of the same compound?
A: Its value is 89% and 95.2% and 90.5%.

Q: What about the remaining activity at 1 µM (SARS-CoV-2 Mpro [1]) of the same compound?
A: The remaining activity at 1 µM was 89%.

Q: And the remaining activity at 10 µM (SARS-CoV-2 Mpro [1])?
A: The remaining activity at 10 µM was 50%.

Q: What about the EC50 (SARS-CoV-2 [6]) of the same compound?
A: The EC50 was 0.5 ± 0.08 µM.

Q: Which “inhibition of virus spread compared to untreated controls” value (SARS-CoV-2 [2]) does the source give for `Cn1c(N2CCCCS2(=O)=O)nc(C(=O)NCc2ccc(F)cc2)c(O)c1=O` [BMS-707035] here?
A: The value was 81%.

Q: What about the EC50 (SARS-CoV-2 [3]) of the same compound?
A: The EC50 was 0.27 µM.

Q: And the “inhibition of Mpro protease activity” value (SARS-CoV-2 Mpro [5])?
A: Its value is “not found to be effectively inhibiting the Mpro protease activity”.

Q: What about the CC50 at 24 h (in vitro) of the same compound?
A: Its CC50 at 24 h is 42.2 µM.

Q: What about the remaining activity at 1 µM (SARS-CoV-2 Mpro [1]) of the same compound?
A: Its remaining activity at 1 µM is 79%.

Q: What about the remaining activity at 10 µM (SARS-CoV-2 Mpro [1]) of the same compound?
A: The remaining activity at 10 µM was 60%.

Q: Which results are given for `CC(C)(C)NC(=O)N[C@H](C(=O)N1C[C@H]2[C@@H]([C@H]1C(=O)NC(CC1CCC1)C(=O)C(N)=O)C2(C)C)C(C)(C)C` (stereo partly drawn) [Bocoprevir]?
A: remaining activity at 1 µM (SARS-CoV-2 Mpro [1]): 71%; remaining activity at 10 µM (SARS-CoV-2 Mpro [1]): 69%

Q: Which results are given for `COC(=O)N[C@H](C(=O)N1CCC[C@H]1c1nc(-c2ccc(-c3ccc(-c4c[nH]c([C@@H]5CCCN5C(=O)[C@@H](NC(=O)OC)C(C)C)n4)cc3)cc2)c[nH]1)C(C)C` [Daclastavir HCl]?
A: inhibition of virus spread compared to untreated controls (SARS-CoV-2 [2]): 70%; reduction in the number of viral RNA molecules compared to untreated cells (SARS-CoV-2 [7]): 2 log; EC50 (SARS-CoV-2 [3]; [8]): 1.59 µM; CC50 at 24 h [4]: 32.1 µM; IC50 (SARS-CoV-2 PLpro): 1.84 ± 0.256 µM; % normalised alamar Blue reduction at 10μM (HEK293T cells; listed as Daclatasvir dihydrochloride): 89% and 80% and 96%

Q: Which “% normalised alamar Blue reduction at 10μM” value (HEK293T cells) does the source give for `COC(=O)N[C@H](C(=O)N1CCC[C@H]1c1nc(-c2ccc(-c3ccc(-c4c[nH]c([C@@H]5CCCN5C(=O)[C@@H](NC(=O)OC)C(C)C)n4)cc3)cc2)c[nH]1)C(C)C` [Daclatasvir (BMS-790052)] here?
A: The value was 80% and 88% and 75%.

Q: For `CC(C)CN(C[C@@H](O)[C@H](Cc1ccccc1)NC(=O)O[C@H]1CO[C@H]2OCC[C@H]21)S(=O)(=O)c1ccc(N)cc1` [Darunavir], which “% normalised alamar Blue reduction at 10μM” value (HEK293T cells) is on record?
A: The value was 80% and 97% and 79%.

From PMC8881501, “Identification of SARS-CoV-2 inhibitors targeting Mpro and PLpro using in-cell-protease assay” (Communications Biology, 2022)
